# Data taken from US20230381348A1, “BIFUNCTIONAL MACROCYCLIC CHELATE, CONJUGATE, METAL COMPLEX AND USE THEREOF” (Jyams Pet Research & Development Limited, priority 2021, published 2023).
# B1: ^89Zr-Dar-KN035 (conjugate, chains of the INN, looked up)
# VH: QVQLVESGGGLVQPGGSLRLSCAASGKMSSRRCMAWFRQAPGKERERVAKLLTTSGSTYLADSVKGRFTISRDNSKNTVYLQMNSLRAEDTAVYYCAADSFEDPTCTLVTSSGAFQYWGQGTLVTVSS
# modifications: 89Zr with Dar chelator
# How the values were obtained:
# [1] = tested on: LNCap tumor-bearing mice animal models; experiment: ^177Lu-Dar-PSMA-617 treatment study (tumor size, body weight, clinical observation); assay type: in vivo
# Protocol: LNCap tumor-bearing mice animal models were used.
# Experimental Groups: • (A)^177Lu-Dar-PSMA-617 low dosage 0.25 mCi (n=7); • (B)^177Lu-Dar-PSMA-617 medium dosage 0.5 mCi (n=10); • (C)^177Lu-Dar-PSMA-617 high dosage 1 mCi (n=10).
# Positive Control Groups: • (D)^177Lu-DOTA-PSMA-617 0.5 mCi (n=7); • (E)^177Lu-DOTA-PSMA-617 1 mCi (n=10).
# Negative Control Groups: • (F) ^177LuCl3 1 mCi (n=10); • (G) normal saline (n=10)
# Method: the day of administration was recorded as D-0, and body weight and tumor size were measured every day or every other day. After administration of ^177Lu-Dar-PSMA-617 (Group C), SPECT scan was performed at 4 h, 24 h, 72 h, 120 h, and 240 h after the administration; the control groups ^177Lu-DOTA-PSMA-617 (Group E) and ^177LuCl3 (Group F) were respectively subjected to SPECT scan at 2 h, 24 h, 72 h, and 120 h (240 h) (refer to FIG. 7, group C, group E, and group F in sequence from top to bottom). The animals were kept stationary, and CT scan was completed before/after the SPECT scan. Prior to the scan, the animals were subjected to respiratory anesthesia with isoflurane through an anesthesia machine, and the animals having undergone anesthesia induction were placed on a SPECT/CT bed. During the scan, the animals continuously inhaled isoflurane to maintain anesthesia effect. Each bed was statically scanned for 10-30 min and scan time was recorded.
# [2] = assay type: physicochemical; details: 48 h
# Protocol: (§1) HPLC: standard UV peak Rt=10.548 min, radioactive peak Rt=10.809 min, corresponding to the peak position of the standard.
# [3] = In vitro stability of labeled product in mouse serum (radiochemical purity after 48 h); assay type: in vitro ADME
# Protocol: as §1
# LNCap tumor-bearing mice = experiment: PET imaging after tail vein injection; assay type: in vivo; details: single intravenous administration, 200 μCi
# Protocol: (§2) Method: LNCap tumor-bearing mice were injected with the complex ^89Zr-Dar-PSMA-617 (200 μCi) prepared in Example 9 through tail vein, while dynamic scan was performed for 60 min during the administration, and static whole body scan was performed for 10 min at different time points during 2-216 h after the administration. Refer to FIG. 1 for the mouse PET scanning image.
# as §2, with “complex” for “complex ^89Zr-Dar-PSMA-617”, “Example 7” for “Example 9”, “vein,” for “vein, while”, “and the” for “and”, “points of 2-192” for “points during 2-216”, “FIG. 2” for “FIG. 1”
# Method: LNCap tumor-bearing mice were injected with the complex ^68Ga-Dar-PSMA-617 (200 μCi) prepared in Example 10 through tail vein, dynamic scan was performed for 60 min during the administration, and the static whole body scan was performed for 10 min at different time points of 2-6 h after the administration. Refer to FIG. 3 for the mouse PET scanning image.
# [4] = male, SD, rat, in vivo, iv
# Method: About 0.1-0.2 mL of blood was collected from jugular vein plexus of the experimental animals at 5 min, 15 min, 30 min, 1 h, 2 h, 3 h, 4 h, 5 h, 6 h, 8 h, 12 h, 24 h, 48 h, 72 h, 96 h, 120 h, 144 h, and 168 h after the administration, and the rats were weighed for subsequent assay. Blood was collected from 6 males in each group at each time point, and 12 animals were cross-sampled. Each sample was subjected to gamma counting for 30 s.
# LNCap cells [5] = experiment: Experiment A cell uptake experiment (cell binding rate); assay type: cell-based; details: for uptake rate of the blocking group: unlabeled ligand 200 times that of labeled subject; for uptake rate: 37° C.
# Protocol: (§3) LNCap cells were cultured to logarithmic growth phase. After digestion with pancreatin, the resultant mixture was adjusted with complete medium into a cell suspension with a cell density of […]. Cells were inoculated in 24-well plate with 0.5-1.0 mL cells per well and the number of 1×10^5 cells per well (inoculated 2 d in advance for cell experiment). ^177Lu-Dar, ^177Lu-Dar-PSMA-617, ^177Lu-DOTA, and ^177Lu-DOTA-PSMA-617 were respectively diluted with a basic medium (with 1% HSA added) to 10 μCi/mL for subsequent use.
# Unlabeled ligands Dar, DOTA, Dar-PSMA-617, and DOTA-PSMA-617 were respectively formulated to be 10 μg/mL and 25 μg/mL with basic medium (with 1% HSA added) for subsequent use.
# (§4) Cells were incubated in 37° C. incubator for 1 h, 4 h, and 24 h.
# Uptake experiment: blocking groups were set in cell uptake experiment, and unlabeled ligands were added in an amount of 200 times that of labeled subjects. After incubation was completed, the cell suspension was collected, followed by centrifugation at 1500 rpm for 5 min, cell pellet was collected, the supernatant was removed, the cell pellet was washed once with 0.5 mL of pre-cooled PBS, and the resultant cell pellet was collected.
# (§5) Cell pellet was collected for gamma counting. Both the blank and standard tubes were assayed simultaneously in each test.
# Cell binding rate=CPM of the cell lysate/CPM of the standard tube×100%
# LNCap cells [6] = experiment: Experiment A internalization experiment; assay type: cell-based
# Protocol: as §3, §4
# Internalization experiment: after incubation was completed, the cell suspension was collected, 0.5 mL of pre-cooled pickling solution was added, after incubation for 1 min at room temperature, the pickling solution was removed; and the resultant mixture was washed once with 0.5 mL of PBS, and cell pellet was collected.
# as §5
# Cell internalization rate=CPM of the cell lysate after acid pickling/CPM of the uptake experiment cell lysate×100%
# LNCap cells [7] = experiment: Experiment A efflux experiment; assay type: cell-based; details: then 24 h in complete medium
# Protocol: as §3, §4
# Efflux experiment: after the incubation was completed, the cell suspension was collected, washed once with 0.5 mL of complete medium, added with 0.5 mL of complete medium, after resuspension, the resultant mixture was placed into original wells, incubated at 37° C. for 24 h, and then the supernatant was collected, and washed once with 0.5 mL of PBS. Cell pellet was collected after centrifugation of the supernatant and PBS washing solution; and 0.5 mL of 1 M lysis solution was utilized to digest and lyse cells in the original wells, and combined with the cell pellet.
# as §5
# Cell efflux rate=CPM of the efflux experiment cell lysate/CPM of the uptake experiment cell lysate×100%
# [8] = tested on: MC38/MC38-hPDL1 bilateral tumor-bearing mice; experiment: ^89Zr-Dar-KN035 PET imaging study; assay type: in vivo
# Protocol: Method: MC38/MC38-hPDL1 bilateral tumor-bearing mice were injected with the ^89Zr-Dar-KN035 (100 μCi) through tail vein, wherein MC38 was a tumor low-expressing PDL1, and MC38-hPDL1 was a tumor high-expressing PDL1. Dynamic scan was performed for 60 min during the administration, and static whole body scan was performed for 10 min at different time points of 1-168 h after the administration. A mouse PET scanning image is shown in FIG. 10, with MC38 on the left and MC38-hPDL1 on the right.
molecule,measurement,setting,value
[177Lu+3].[Cl-].[Cl-].[Cl-] [^177LuCl3],body weight change,"[1]; 1 mCi (Group C, Group F)",decrease rapidly
same,adverse effects (conclusion),[1]; 1 mCi (Group F),severe adverse effects
same,gross anatomy of dead mice,[1]; 1 mCi (Group F),skeletal darkening and blood stasis of bone marrow
same,animal clinical observation,"[1]; 1 mCi (Group F), starting from D-5, all animals at the later stage",weight loss and arched back
"Cc1cc2c(O)c(c1)CN(CC(=O)O)Cc1cccc(n1)CN(CC(=O)NC[C@H]1CC[C@H](C(=O)N[C@@H](Cc3ccc4ccccc4c3)C(=O)NCCCC[C@H](NC(=O)N[C@@H](CCC(=O)O)C(=O)O)C(=O)O)CC1)Cc1cc(C)cc(c1O)CN(CC(=O)O)Cc1cccc(n1)CN(CC(=O)O)C2 [^89Zr-Dar-PSMA-617, metal not drawn]",radiochemical purity after incubation in normal saline,"[2]; normal saline, 37° C. water bath incubator",98%
same,radiochemical purity after being placed at room temperature,[2]; room temperature,98%
same,radiochemical purity after incubation in mouse serum,[3],96%
same,main distribution of radioactive substances,LNCap tumor-bearing mice,mainly distributed in the bladder and kidneys
same,half-life period in blood,[4],4.57 h
O=C([O-])CN1CCN(CC(=O)[O-])CCN(CC(=O)[O-])CCN(CC(=O)[O-])CC1.[177Lu+3].[H+] [^177Lu-DOTA],uptake rate of the blocking group,LNCap cells [5]; 1 h,0.26%
same,uptake rate,LNCap cells [5]; 1 h incubation,0.22%
same,uptake rate of the blocking group,LNCap cells [5]; 4 h,0.24%
same,uptake rate,LNCap cells [5]; 4 h incubation,0.20%
same,uptake rate of the blocking group,LNCap cells [5]; 24 h,1.97%
same,uptake rate,LNCap cells [5]; 24 h incubation,2.01%
same,internalization rate,LNCap cells [6]; 1 h incubation,35.46%
same,internalization rate,LNCap cells [6]; 4 h incubation,165.46%
same,internalization rate,LNCap cells [6]; 24 h incubation,8.33%
same,efflux rate,LNCap cells [7]; 1 h incubation,76.83%
same,efflux rate,LNCap cells [7]; 4 h incubation,63.22%
same,efflux rate,LNCap cells [7]; 24 h incubation,9.38%
B1,uptake in tumor high-expressing PDL1 (MC38-hPDL1),"[8]; 100 μCi tail vein, PET 1-168 h",significantly taken up
same,uptake in tumor low-expressing PDL1 (MC38),"[8]; 100 μCi tail vein, PET 1-168 h",almost not taken up
same,tumor selectivity,[8]; MC38-hPDL1 versus MC38,good tumor selectivity
